For one data set, the system named is diabetic rats. Nature of the data set: Ocular permeability in STZ diabetic rats (leakage of fluorescein into the vitreous). The conditions noted are these: daily from 2 weeks after STZ, mean ± S.E.M., 10 rats. It is filed as in vivo, rat. The method, then:
Diabetes in rats was induced with an intraperitoneal (i.p.) injection of 65 mg/ml/kg of streptozotocin (STZ) in 2 mmol/l citrate buffer (pH 4.5) after a 20-h fast. At the same time control rats were injected with an equal volume of 2 mmol/l citrate buffer. Plasma glucose level was checked by a calorimetric method. At day 3 of STZ treatment, the rats were diagnosed with diabetes showing a plasma glucose level of 350 mg/dl.
The treatment of Compound A was given daily from 2 weeks after STZ treatment for 2 weeks. At 24 hrs after final treatment of Compound A, the vascular permeability in oculus was investigated based on the leakage of dye into the vitreous 30 min after intravenous injection of fluorescein solution (40 mg/ml/kg). Permeability was expressed as vitreous/plasma ratio of fluorescein concentration measured by a fluorophotometer. At the same time, the plasma SSAO activity was checked by the radiochemical-enzyme assay using ^14C-benzylamine (2×10^−5 mol/l final concentration) as substrate.
In the same manner as in Example 2, the effect of various VAP-1 inhibitors on ocular permeability was determined in diabetic rats.

Structures can show the parent of a compound that is named as a salt.

In general, melting point refers to the temperature of the solid-liquid transition. In turn, `CC(=N)Nc1ccc(CCc2nc(NC(C)=O)sc2Cc2ccc(S(C)(=O)=O)cc2)cc1` [Production Example 56, N-{4-{2-[4-(ethanimidoylamino)phenyl]ethyl}-5-[4-(methylsulfonyl)benzyl]-1,3-thiazol-2-yl}acetamide] returned a melting point of 81.5 to 83 °C.
`CC(=O)Nc1nc(CCc2ccc(CC(=N)N)cc2)cs1` (as salt: hydrochloride) [Production Example 59, N-(4-{2-[4-(2-amino-2-iminoethyl)phenyl]ethyl}-1,3-thiazol-2-yl)acetamide] showed a melting point of 190.5 to 192 °C.
In the case of `CC(=O)Nc1nc(CCc2ccc(NC3=NCCS3)cc2)cs1` [Production Example 2, N-(4-(2-(4-(4,5-dihydro-1,3-thiazol-2-ylamino)phenyl)ethyl)-1,3-thiazol-2-yl)acetamide], the melting point lay within 218 to 219.5 °C.
The compound `CC(=O)Nc1nc(CCc2ccc(CON)cc2)cs1` [Compound B, N-[4-(2-{4-[(aminooxy)methyl]phenyl}ethyl)-1,3-thiazol-2-yl]acetamide] showed a melting point of 130 to 130.5 °C. Besides, the “Vitreous/Plasma Ratio of Fluorescein Concentration” value in the data set with diabetic rats (0.1 mg/kg, s.c.) is 7.54 ± 0.80 ×10^−3. In addition, the “Vitreous/Plasma Ratio of Fluorescein Concentration” value in the data set with diabetic rats (0.003%, ocular instillation, u.i.d.) was 9.86 ± 1.65 ×10^−3.
Consider `CC(=O)Nc1nc(CCc2ccc(NC(=N)N)cc2)c(Cc2ccc(S(C)(=O)=O)cc2)s1` [Production Example 48, N-{4-[2-(4-{[amino(imino)methyl]amino}phenyl)ethyl]-5-[4-(methylsulfonyl)benzyl]-1,3-thiazol-2-yl}acetamide], for which the melting point lay within 228 to 229.5 °C.
`CC(=O)Nc1nc(CCc2ccc(C(=O)NC(=N)N)cc2)c(Cc2ccc(S(C)(=O)=O)cc2)s1` [Production Example 106, 4-(2-{2-(acetylamino)-5-[4-(methylsulfonyl)benzyl]-1,3-thiazol-4-yl}ethyl)-N-[amino(imino)methyl]benzamide] yielded a melting point of 108 to 109.5 °C.
On to `C=NOCc1ccc(CCc2csc(NC(C)=O)n2)cc1` [Production Example 17, N-{4-[2-(4-{[(methyleneamino)oxy]methyl}phenyl)ethyl]-1,3-thiazol-2-yl}acetamide], for which the melting point is 136.5 to 137 °C.
Compound `CC(=O)Nc1nc(CCc2ccc(C(=N)N)cc2)cs1.Cl` yielded a melting point of 229.5 to 231 °C.
As to `CC(=O)Nc1nc(CCc2ccc(NC3=NCCN3)cc2)c(Cc2ccc(S(C)(=O)=O)cc2)s1` [Production Example 55, N-{4-{2-[4-(4,5-dihydro-1H-imidazol-2-ylamino)phenyl]ethyl}-5-[4-(methylsulfonyl)benzyl]-1,3-thiazol-2-yl}acetamide], the melting point fell in the range of 139 to 140 °C.

The values are drawn from patent US20080119462A1, “METHOD FOR TREATING VASCULAR HYPERPERMEABLE DISEASE” (Sucampo AG, priority 2003, published 2008).
